# Test results taken from patent US20230159532A1, “PARATHYROID HORMONE (PTH) RECEPTOR ANTAGONISTS AND USES THEREOF” (Crinetics Pharmaceuticals, Inc., priority 2021, published 2023).
# Target: T1, human PTHR1 receptor (Homo sapiens, UniProt Q03431)
# T1 construct: purchased Eurofins HTS030M
# T1 sequence (Q03431 27-593): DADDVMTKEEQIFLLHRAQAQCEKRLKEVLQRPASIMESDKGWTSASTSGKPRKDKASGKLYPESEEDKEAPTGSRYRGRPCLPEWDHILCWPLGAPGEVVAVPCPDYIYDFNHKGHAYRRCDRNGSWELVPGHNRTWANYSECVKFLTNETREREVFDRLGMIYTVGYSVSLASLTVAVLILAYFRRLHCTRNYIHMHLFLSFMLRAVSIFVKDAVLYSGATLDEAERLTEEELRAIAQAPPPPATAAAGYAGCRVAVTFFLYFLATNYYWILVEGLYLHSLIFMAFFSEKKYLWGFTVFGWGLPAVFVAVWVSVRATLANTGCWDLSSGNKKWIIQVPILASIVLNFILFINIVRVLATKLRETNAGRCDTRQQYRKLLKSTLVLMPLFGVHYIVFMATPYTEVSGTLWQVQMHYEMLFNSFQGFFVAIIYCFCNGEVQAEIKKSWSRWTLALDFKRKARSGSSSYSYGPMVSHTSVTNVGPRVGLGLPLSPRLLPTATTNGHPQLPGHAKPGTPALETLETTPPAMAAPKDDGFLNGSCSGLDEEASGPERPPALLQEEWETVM
# Test: Competitive antagonist binding assay for hPTH-R1 (radioactive competition binding, SPA beads)
# Details: human PTHR1 membranes, [125I]-[Nle8,18,Tyr34]-PTH(1-34) 0.2 nM, 90 minutes at room temperature; read-out: hPTHR1 Ki
# How it was run: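 Human PTHR1 membranes on SPA beads incubated 90 min at room temperature with compound (typically 0-10,000 nM final) and 0.2 nM [125I]-[Nle8,18,Tyr34]-PTH(1-34) in HEPES buffer with MgCl2, CaCl2, BSA, Triton X-100 and protease inhibitors, pH 7.4. Scintillation signal read; Ki values derived.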
row,Compound,Ki
1,"CCN1C(=O)N(c2c(F)cc(NCC3CNC3)cc2F)c2cc(C#N)ccc2-c2cc(Cl)cnc21 [1-145, 10-(4-{[(azetidin-3-yl)methyl]amino}-2,6-difluorophenyl)-4-chloro-8-ethyl-9-oxo-6,8,10-triazatricyclo[9.4.0.0^2,7]pentadeca-1(11),2(7),3,5,12,14-hexaene-13-carbonitrile]",< 100 nM
2,"CNCCNc1cc(F)c(N2C(=O)N(C(C)C)c3ncc(Cl)cc3-c3ccc(C#N)cc32)c(F)c1 [1-91, 4-chloro-10-(2,6-difluoro-4-{[2-(methylamino)ethyl]amino}phenyl)-9-oxo-8-(propan-2-yl)-6,8,10-triazatricyclo[9.4.0.0^2,7]pentadeca-1(11),2(7),3,5,12,14-hexaene-13-carbonitrile]",< 100 nM
3,"CCN1C(=O)N(c2c(F)cc(NCCN[C@H]3CC[C@H](C(=O)O)CC3)cc2F)c2cc(C#N)ccc2-c2cc(Cl)cnc21 [1-193, (1r,4r)-4-({2-[(4-{4-chloro-13-cyano-8-ethyl-9-oxo-6,8,10-triazatricyclo[9.4.0.0^2,7]pentadeca-1(11),2(7),3,5,12,14-hexaen-10-yl}-3,5-difluorophenyl)amino]ethyl}amino)cyclohexane-1-carboxylic acid]",< 100 nM
4,"CCN1C(=O)N(c2c(F)cc(NCCNC[C@H](C)O)cc2F)c2cc(C#N)ccc2-c2cc(Cl)cnc21 [1-180, 4-chloro-10-{2,6-difluoro-4-[(2-{[(2S)-2-hydroxypropyl]amino}ethyl)amino]phenyl}-8-ethyl-9-oxo-6,8,10-triazatricyclo[9.4.0.0^2,7]pentadeca-1(11),2(7),3,5,12,14-hexaene-13-carbonitrile]",< 100 nM
5,"CCN1C(=O)N(c2c(F)cc(N(C)CCNC)cc2F)c2cc(C#N)ccc2-c2cc(Cl)cnc21 [1-146, 4-chloro-10-(2,6-difluoro-4-{methyl[2-(methylamino)ethyl]amino}phenyl)-8-ethyl-9-oxo-6,8,10-triazatricyclo[9.4.0.0^2,7]pentadeca-1(11),2(7),3,5,12,14-hexaene-13-carbonitrile]",< 100 nM
6,"CNCCNc1cc(F)c(N2C(=O)N(C(C)C)c3ncc(F)cc3-c3c(C)cc(Cl)cc32)c(F)c1 [1-78, 13-chloro-10-(2,6-difluoro-4-{[2-(methylamino)ethyl]amino}phenyl)-4-fluoro-15-methyl-8-(propan-2-yl)-6,8,10-triazatricyclo[9.4.0.0^2,7]pentadeca-1(11),2(7),3,5,12,14-hexaen-9-one]",< 100 nM
7,"CCN1C(=O)N(c2c(F)cc(NCCNCCCC(=O)O)cc2F)c2cc(Cl)ccc2-c2cc(Cl)cnc21 [1-10, 4-({2-[(4-{4,13-dichloro-8-ethyl-9-oxo-6,8,10-triazatricyclo[9.4.0.0^2,7]pentadeca-1(11),2(7),3,5,12,14-hexaen-10-yl}-3,5-difluorophenyl)amino]ethyl}amino)butanoic Acid]",< 100 nM

# Now from value to compound:
row,Ki,Compound
1,< 100 nM,"CCN1C(=O)N(c2c(F)cc(NCCN[C@@H](CCSC)C(=O)O)cc2F)c2cc(C#N)ccc2-c2cc(Cl)cnc21 [1-233, (2S)-2-({2-[(4-{4-chloro-13-cyano-8-ethyl-9-oxo-6,8,10-triazatricyclo[9.4.0.0^2,7]pentadeca-1(11),2(7),3,5,12,14-hexaen-10-yl}-3,5-difluorophenyl)amino]ethyl}amino)-4-(methylsulfanyl)butanoic acid]"
2,< 100 nM,"CCN1C(=O)N(c2c(F)cc(NCCN3CC[C@@H](O)C3)cc2F)c2cc(C#N)ccc2-c2cc(Cl)cnc21 [1-231, 4-chloro-10-[2,6-difluoro-4-({2-[(3R)-3-hydroxypyrrolidin-1-yl]ethyl}amino)phenyl]-8-ethyl-9-oxo-6,8,10-triazatricyclo[9.4.0.0^2,7]pentadeca-1(11),2(7),3,5,12,14-hexaene-13-carbonitrile]"
3,< 100 nM,"CCN1C(=O)N(c2c(F)cc(NCCNCCNC(=O)OC)cc2F)c2cc(C#N)ccc2-c2cc(F)cnc21 [1-216, methyl N-[2-({2-[(4-{13-cyano-8-ethyl-4-fluoro-9-oxo-6,8,10-triazatricyclo[9.4.0.0^2,7]pentadeca-1(11),2(7),3,5,12,14-hexaen-10-yl}-3,5-difluorophenyl)amino]ethyl}amino)ethyl]carbamate]"
